Results published in ChEMBL document CHEMBL5724696, “Autophagy assay results for EUbOPEN Chemogenomics Library” (2024).
Where “and” joins values, the source holds several entries; their conditions need not be identical. Equal values may be shown once.

Tests used:
Type in all cases: functional, Homo sapiens
[1] = test system: U2OS; assay: (§1) Here: values are normalized to the positive (DMSO; basel flux = defined as 100% suppression) and negative (250nM Torin1; mTOR inhibitor; maximal inducer of autophagy defined as 0% suppression) control compounds and represented as % of ER-phagy suppression. […] The impact of autophagy induction on cells is complex and depends on the affected target. […] Of note, treatment concentrations may be sub-optimal for specific compounds, leading to false negative annotations.; conditions: Compound Concentration 1 uM, Culturing Media DMEM, 1 % Penicillin/Streptomycin, 10% Fetal bovin serum Add-On: blasticidin, Screening Media Control DMEM, 10% Fetal bovin serum Add-On: 1 µg/ml Doxycyclin, Screening Media Samples DMEM, 10% Fetal bovin serum Add-On: 1 µg/ml Doxycyclin 250nM Torin1
[2] = test system: U2OS; assay: as §1; conditions: Compound Concentration 1 uM, Culturing Media DMEM, 1 % Penicillin/Streptomycin, 10% Fetal bovin serum Add-On: blasticidin, Screening Media Control DMEM, 10% Fetal bovin serum Add-On: 1 µg/ml Doxycyclin, Screening Media Samples DMEM, 10% Fetal bovin serum Add-On: 1 µg/ml Doxycyclin 250nM Torin1; remark: listed apart in the source
[3] = test system: U2OS; assay: (§2) Here: values are normalized to the negative (DMSO; defined as 0% autophagy induction) and positive (250nM Torin1; mTOR inhibitor; defined as maximal inducer of autophagy = 100%) control compounds and represented as % of autophagy induction. […] The impact of autophagy induction on cells is complex and depends on the affected target. As such, the magnitude of a phenotype may not be equally mirrored in the %-value of autophagy induction and vice versa. The dynamics of the induction may indicate the mode of activation: e.g. activation via phosphorylation or a signaling cascade may occur fast, while activation via transcription factors may take considerably longer. […] Of note, treatment concentrations may be sub-optimal for specific compounds, leading to false negative annotations.; conditions: Culturing Media DMEM, 1 % Penicillin/Streptomycin, 10% Fetal bovin serum Add-On: No, Screening Media Control DMEM, Screening Media Samples DMEM
[4] = test system: TERT-RPE1; assay: as §2; conditions: Culturing Media DMEM/F12 (1:1), 1 % Penicillin/Streptomycin, 10% Fetal bovin serum Add-On: No, Screening Media Control DMEM/F12 (1:1), Screening Media Samples DMEM/F12 (1:1)
[5] = test system: U2OS; assay: as §2; conditions: Culturing Media DMEM, 1 % Penicillin/Streptomycin, 10% Fetal bovin serum Add-On: No, Screening Media Control DMEM, Screening Media Samples DMEM; remark: listed apart in the source
[6] = Compound Concentration 0.5 uM, Timepoint 12 hours
[7] = Compound Concentration 0.5 uM, Timepoint 24 hours
[8] = Compound Concentration 0.5 uM, Timepoint 36 hours
[9] = Compound Concentration 0.5 uM, Timepoint 60 hours
[10] = Compound Concentration 2 uM, Timepoint 12 hours
[11] = Compound Concentration 2 uM, Timepoint 24 hours
[12] = Compound Concentration 2 uM, Timepoint 36 hours
[13] = Compound Concentration 2 uM, Timepoint 60 hours
[14] = Compound Concentration 10 uM, Timepoint 12 hours
[15] = Compound Concentration 10 uM, Timepoint 24 hours
[16] = Compound Concentration 10 uM, Timepoint 36 hours
[17] = Compound Concentration 10 uM, Timepoint 60 hours

C[C@@H](N)[C@H]1CC[C@H](C(=O)Nc2ccncc2)CC1.Cl.Cl
ER-phagy suppression ([1]; Timepoint 12 hours): -40.2837% | ER-phagy suppression ([1]; Timepoint 24 hours): -57.1688% | ER-phagy suppression ([1]; Timepoint 36 hours): -58.7515% | ER-phagy suppression ([1]; Timepoint 54 hours): -55.2677% | ER-phagy suppression ([2]; Timepoint 12 hours): -1.165% | ER-phagy suppression ([2]; Timepoint 24 hours): -12.4028% | ER-phagy suppression ([2]; Timepoint 36 hours): 0.04526% | ER-phagy suppression ([2]; Timepoint 60 hours): 2.669%

CCOc1cc(N2CCC(O)CC2)ccc1Nc1ncc2c(n1)N(C)c1ccccc1C(=O)N2C
ER-phagy suppression ([1]; Timepoint 12 hours): -49.4363% | ER-phagy suppression ([1]; Timepoint 24 hours): -63.2462% | ER-phagy suppression ([1]; Timepoint 36 hours): -50.7543% | ER-phagy suppression ([1]; Timepoint 54 hours): -40.8997% | ER-phagy suppression ([2]; Timepoint 12 hours): 41.1735% | ER-phagy suppression ([2]; Timepoint 24 hours): 16.7232% | ER-phagy suppression ([2]; Timepoint 36 hours): 17.4074% | ER-phagy suppression ([2]; Timepoint 60 hours): 10.8345%

CN([C@@H](Cc1ccc(OS(=O)(=O)c2cccc3cnccc23)cc1)C(=O)N1CCN(c2ccccc2)CC1)S(=O)(=O)c1cccc2cnccc12
ER-phagy suppression ([1]; Timepoint 12 hours): -1.9452% | ER-phagy suppression ([1]; Timepoint 24 hours): -10.891% | ER-phagy suppression ([1]; Timepoint 36 hours): -4.8506% | ER-phagy suppression ([1]; Timepoint 54 hours): -2.408% | ER-phagy suppression ([2]; Timepoint 12 hours): 11.3745% | ER-phagy suppression ([2]; Timepoint 24 hours): -2.8225% | ER-phagy suppression ([2]; Timepoint 36 hours): -4.115% | ER-phagy suppression ([2]; Timepoint 60 hours): -4.142%

O=C(NCc1cccc(O)c1)Nc1nc(-c2ccncc2)cs1
ER-phagy suppression ([1]; Timepoint 12 hours): -63.2417% | ER-phagy suppression ([1]; Timepoint 24 hours): -37.1145% | ER-phagy suppression ([1]; Timepoint 36 hours): 6.149% | ER-phagy suppression ([1]; Timepoint 54 hours): 46.7933% | ER-phagy suppression ([2]; Timepoint 12 hours): 38.3546% | ER-phagy suppression ([2]; Timepoint 24 hours): 42.4931% | ER-phagy suppression ([2]; Timepoint 36 hours): 43.3897% | ER-phagy suppression ([2]; Timepoint 60 hours): 45.9293%

COc1ccccc1-c1cc(Nc2cccc(CS(N)(=O)=O)c2)ncn1
ER-phagy suppression ([1]; Timepoint 12 hours): -2.879% | ER-phagy suppression ([1]; Timepoint 24 hours): 2.7876% | ER-phagy suppression ([1]; Timepoint 36 hours): 9.9584% | ER-phagy suppression ([1]; Timepoint 54 hours): 17.8632% | ER-phagy suppression ([2]; Timepoint 12 hours): 64.2077% | ER-phagy suppression ([2]; Timepoint 24 hours): 50.2137% | ER-phagy suppression ([2]; Timepoint 36 hours): 56.273% | ER-phagy suppression ([2]; Timepoint 60 hours): 39.1119%

Cl.Cl.NC1(c2ccc(-c3nc4ccn5c(=O)[nH]nc5c4cc3-c3ccccc3)cc2)CCC1
ER-phagy suppression ([1]; Timepoint 12 hours): 6.566% | ER-phagy suppression ([1]; Timepoint 24 hours): 12.3552% | ER-phagy suppression ([1]; Timepoint 36 hours): 31.5322% | ER-phagy suppression ([1]; Timepoint 54 hours): 46.784% | ER-phagy suppression ([2]; Timepoint 12 hours): 41.5267% | ER-phagy suppression ([2]; Timepoint 24 hours): 48.6663% | ER-phagy suppression ([2]; Timepoint 36 hours): 54.9602% | ER-phagy suppression ([2]; Timepoint 60 hours): 60.1398%

Cl.Cl.Nc1nccc(-c2c(-c3ccc(F)cc3)ncn2C2CCCCC2)n1
ER-phagy suppression ([1]; Timepoint 12 hours): 12.007% | ER-phagy suppression ([1]; Timepoint 24 hours): 14.1245% | ER-phagy suppression ([1]; Timepoint 36 hours): 19.9643% | ER-phagy suppression ([1]; Timepoint 54 hours): 25.2011%

CCCSc1nc(N[C@@H]2C[C@H]2c2ccc(F)c(F)c2)c2nnn([C@@H]3C[C@H](OCCO)[C@@H](O)[C@H]3O)c2n1 [TICAGRELOR]
autophagy induction [3, 6]: -9.844% | autophagy induction [3, 7]: -12.5107% | autophagy induction [3, 8]: -15.2375% | autophagy induction [3, 9]: -18.2861% | autophagy induction [3, 10]: 2.324% | autophagy induction [3, 11]: -7.302% | autophagy induction [3, 12]: -3.06% | autophagy induction [3, 13]: -7.4162% | autophagy induction [3, 14]: -4.369% | autophagy induction [3, 15]: -2.6496% | autophagy induction [3, 16]: -0.7195% | autophagy induction [3, 17]: 1.979% | autophagy induction ([4]; Compound Concentration 0.5 uM, Timepoint 12 hours, 12 h, 0.5 µM): -0.3223% and -0.8015% | autophagy induction ([4]; Compound Concentration 0.5 uM, Timepoint 24 hours, 24 h, 0.5 µM): 2.932% and -1.64% | autophagy induction ([4]; Compound Concentration 0.5 uM, Timepoint 36 hours, 36 h, 0.5 µM): 3.182% and -0.1292% | autophagy induction ([4]; Compound Concentration 0.5 uM, Timepoint 60 hours, 60 h, 0.5 µM): 6.614% and -2.465% | autophagy induction ([4]; Compound Concentration 2 uM, Timepoint 12 hours, 12 h, 2 µM): -2.164% and 3.738% | autophagy induction ([4]; Compound Concentration 2 uM, Timepoint 24 hours, 24 h, 2 µM): 2.13% and 2.219% | autophagy induction ([4]; Compound Concentration 2 uM, Timepoint 36 hours, 36 h, 2 µM): 3.83% and 3.863% | autophagy induction ([4]; Compound Concentration 2 uM, Timepoint 60 hours, 60 h, 2 µM): 10.3636% and 4.688% | autophagy induction ([4]; Compound Concentration 10 uM, Timepoint 12 hours, 12 h, 10 µM): 2.799% and 5.117% | autophagy induction ([4]; Compound Concentration 10 uM, Timepoint 24 hours, 24 h, 10 µM): 8.7588% and 7.492% | autophagy induction ([4]; Compound Concentration 10 uM, Timepoint 36 hours, 36 h, 10 µM): 16.5266% and 7.688% | autophagy induction [5, 6]: -3.602% | autophagy induction [5, 7]: -3.07% | autophagy induction [5, 8]: -60.4394% | autophagy induction [5, 9]: -2.316% | autophagy induction [5, 10]: -5.583% | autophagy induction [5, 11]: -3.174% | autophagy induction [5, 12]: -60.5106% | autophagy induction [5, 13]: -3.163% | autophagy induction [5, 14]: -2.648% | autophagy induction [5, 15]: 1.759% | autophagy induction [5, 16]: -58.5177% | autophagy induction [5, 17]: -2.994%

CCC(=O)N1CCN(c2ccc(-n3c(=O)ccc4cnc5ccc(-c6cnc7ccccc7c6)cc5c43)cc2C(F)(F)F)CC1 [TORIN1]
ER-phagy suppression ([1]; Timepoint 12 hours): 3.915% | ER-phagy suppression ([1]; Timepoint 24 hours): -7.7479% | ER-phagy suppression ([1]; Timepoint 36 hours): -6.712% | ER-phagy suppression ([1]; Timepoint 54 hours): -3.9465%
